# Tests used:
# Format in all cases: in vivo, human
# [1] = system: patients with New York Heart Association functional class II to III heart failure; assay: Invasive hemodynamic assessments in double-blind, placebo-controlled study
# Description: (§1) A double-blind, placebo-controlled, parallel group, single center study in patients with New York Heart Association functional class II to III heart failure was conducted. Patients were randomised in 1:1 ratio to receive either levosimendan or placebo. Study drug administration was initiated with a loading dose of 12 μg/kg of levosimendan or placebo delivered over 10 minutes. This was followed by a continuous infusion of 0.1 μg/kg/min for 50 minutes. If the dose was well tolerated the infusion rate was increased to 0.2 μg/kg/min for a further 23 hours. After the study drug was started, the hemodynamic assessments were repeated at 30 minutes, at two and six hours. The non-invasive hemodynamic assessments were repeated at 24-hours. Follow-up visits took place at 2, 3, 5, 7, 9 and 14 days from the beginning of the study. On these visits echocardiographic measurements were performed and blood pressure and heart rate were measured.
# [2] = system: patients with New York Heart Association functional class II to III heart failure; assay: Doppler echocardiographic hemodynamic measurements in double-blind, placebo-controlled study
# Description: as §1
# An Acuson Sequoia ultrasound system with 2.5-3.75 MHz probes was used for the Doppler echocardiographic measurements. Blood flow velocity curves were recorded at a sweep speed of 100 mm/s. Left ventricular ejection fraction was assessed by two-dimensional apical two- and four-chamber views with use of modified Simpson rule. Mitral flow velocity was assessed by pulsed wave Doppler from the apical four-chamber view by placing a 3-mm sample volume between the tip of the mitral leaflets in diastole. The following measurements were made over five consecutive cycles: maximal early and maximal late diastolic velocity and their ratio, duration of the late diastolic velocity wave, deceleration time and deceleration rate of early diastolic velocity. Peak velocities were defined as the highest point of the spectrum.
# [3] = system: patients with New York Heart Association functional class II to III heart failure; assay: Plasma natriuretic peptide (NT-proANP, NT-proBNP) measurements in double-blind, placebo-controlled study
# Description: as §1
# Blood samples (4 ml) for natriuretic peptide (NT-proANP, NT-proBNP) measurements were taken into pre-cooled EDTA tubes. Samples were taken at baseline (0-sample) and on the first study day 30 min, 2 h, 6h and 24 h after the start of the infusion and in the mornings of days 2, 3, 5, 7, 9 and 14 after the start of the study drug infusion.
# [4] = after starting the 24-hour infusion
# [5] = echocardiography, 24-hour infusion
# [6] = after start of 24-hour infusion
structure (smiles),measurement,setting,value
"C[C@@H]1CC(=O)NN=C1c1ccc(NN=C(C#N)C#N)cc1 [levosimendan, (−)-enantiomer of [[4-(1,4,5,6-tetrahydro-4-methyl-6-oxo-3-pyridazinyl)phenyl]hydrazono]propanedinitrile]",Invasively measured cardiac output (CO),"[1]; at six hours, loading dose 12 μg/kg, then infusion 0.1-0.2 μg/kg/min",5.4 L/min
same,Invasively measured cardiac output (CO),"[1]; baseline, levosimendan group",4.3 L/min
same,PCWP,"[1]; baseline, levosimendan treatment",20 mmHg
same,PCWP,"[1]; in response to levosimendan treatment, loading dose 12 μg/kg, then infusion 0.1-0.2 μg/kg/min",15 mmHg
same,Maintenance of beneficial hemodynamic and neurohormonal effects,[2]; after levosimendan administration (24-hour infusion),maintained up to two weeks
same,Time at which echocardiographically estimated PCWP reached its lowest value,[2]; [4],2 days
same,Time of maximal effects on hemodynamic parameters,[2]; [4],1 to 3 days
same,Linearly estimated duration of an increase in CO,[2]; [5],13 days
same,Linearly estimated duration of the decrease in PCWP,[2]; [5],9 days
same,Time at which highest CO value estimated by echocardiography was detected,[2]; end of the 24-hour infusion,24 h
same,Duration of treatment effect on plasma NT-proANP estimated by a linear model,[3]; 24-hour infusion,16 days
same,Duration of treatment effect on plasma NT-proBNP estimated by a linear model,[3]; 24-hour infusion,12 days
same,Day at which plasma NT-proANP level reached its lowest value,[3]; [6],3 days
same,Day at which plasma NT-proBNP level reached its lowest value,[3]; [6],2 days
